# From article PMC4389443 (Respiratory Research, 2015)
# Tests used:
# [1] = system: normal volunteers; parameters: method as in PMID 19643947, PMID 21426372, PMID 24341382; settings: cited from earlier work
# [2] = system: normal volunteers; parameters: method as in PMID 19643947, PMID 21426372, PMID 24341382; settings: cited from earlier work; remark: listed apart in the source
# [3] = system: patients with severe neutrophilic asthma; parameters: method as in PMID 23291349; settings: significance lost when all patients analysed together; cited from earlier work
# [4] = system: BALB/c mice; test: House dust mite/Rhinovirus exacerbated asthma model; type: in vivo, mouse; settings: 24 hours post RV1b infection; for Total BALF neutrophils: PXS-4728A 2, dexamethasone 2, azithromycin 25 mg.kg^−1 ip.
# Experimental: Study performed at the University of Newcastle under local ethics committee. BALB/c mice were sensitized and challenged intranasally to 50 μg of crude HDM extract (Dermatophagoides pteronyssinus extract was obtained from Greer Laboratories) on days 0, 1 and 2 followed by four exposures of 5 μg HDM daily from day 14 to day 17 delivered in 50 μl of sterile saline. Animals were then infected on day 18 with infective Human Rhinovirus 1b RV1B41 (2.5 × 10^6 median tissue culture infective dose) intranasally. Mice were intranasally administered 50 μl infective or ultraviolet light (UV)–inactivated RV1B41. Mice were euthanized 24 hours after the rhinovirus challenge. BAL analysis was performed for total and differential counts and airway hyperreactivity (AHR) was assessed invasively by measurement of total lung resistance and dynamic compliance (BUXCO) in response to methacholine challenge as previously described. […]. Dose of azithromycin was chosen based on previously described findings, in respiratory viral infection models.
# [5] = system: BALB/c mice; test: LPS airway inflammation, 6 hour time point; settings: 6 hours after LPS; PXS-4728A 0.2 or 2 mg.kg^−1, dexamethasone 10 mg.kg^−1, oral 1 hour prior
# [6] = system: C57/BL6 mice; test: Cecal ligation and puncture (CLP) induced sepsis; settings: 6 hours; PXS-4728A 6 mg.kg^−1, dexamethasone 5 mg.kg^−1, oral 1 hour prior to surgery
# [7] = system: BALB/c mice; test: Klebsiella pneumoniae lung infection; settings: 24 hours
# [8] = PXS-4728A 6 mg.kg^−1, dexamethasone 10 mg.kg^−1, oral 1 hour prior to infection
structure (smiles),measurement,setting,value
C[C@H](CO)Nc1nc(SCc2cccc(F)c2F)nc2[nH]c(=O)sc12 [AZD8309],Efficacy during inhaled LPS challenge,[1],efficacious
O=C(Nc1ccc(Cl)c(S(=O)(=O)N2CCNCC2)c1O)Nc1cccc(F)c1Cl [SB-656933],Increased neutrophil content in sputum as a result of ozone challenge,[2],inhibit
CC[C@@H](Nc1c(Nc2cccc(C(=O)N(C)C)c2O)c(=O)c1=O)c1ccc(C)o1 [SCH527123],Increased neutrophil content in sputum as a result of ozone challenge,[2],inhibit
CC[C@H]1OC(=O)[C@H](C)[C@@H](O[C@H]2C[C@@](C)(OC)[C@@H](O)[C@H](C)O2)[C@H](C)[C@@H](O[C@@H]2O[C@H](C)C[C@H](N(C)C)[C@H]2O)[C@](C)(O)C[C@@H](C)CN(C)[C@H](C)[C@@H](O)[C@]1(C)O [azithromycin],Exacerbation rates,[3],reduced exacerbation rates
same,Airways hyperreactivity to methacholine challenge,"[4]; PXS-4728A 2, azithromycin 25 mg.kg^−1 ip.",significantly reduced
same,Total BALF neutrophils,[4],significantly dampened
"C[C@@H]1C[C@H]2[C@@H]3CCC4=CC(=O)C=C[C@]4(C)[C@@]3(F)[C@@H](O)C[C@]2(C)[C@@]1(O)C(=O)CO [dexamethasone, reference compound]",Total BALF neutrophils,[4],no impact
same,Influx of neutrophils in BALF,[5],reduction
same,Peritoneal neutrophils,[6],greatly diminished
same,Total peritoneal inflammatory cells,[6],greatly diminished
same,Neutrophil migration into the airway spaces (BALF),[7]; [8],significantly dampened
same,Total leukocyte migration into the airway spaces (BALF),[7]; [8],significantly dampened
same,"Log 10-CFU in the lung (bacterial load), average","[7]; PXS-4728A 6 mg.kg^−1, dexamethasone 10 mg.kg^−1, vehicle 7.59",8.86 LOG 10-CFU
